Like-named read-outs stand apart in the source and are kept apart here.
Key:
LecA = target: T1, LecA (Pseudomonas aeruginosa, UniProt Q05097); assay: Surface plasmon resonance direct LecA binding assay (immobilized LecA); set-up: species or system P. aeruginosa; conditions: for time to reach equilibrium binding with immobilized LecA / k a / k d: SPR; for k a / k d: immobilized LecA
T1 construct: made in house; host or cells: E. coli (plasmid pET25-pail)
Text: Therefore, we measured the LecA affinity of thiol derivatives 17, 18, 24 and 25 and disulfides 26a, 26b and 27 using surface plasmon resonance (SPR) with LecA covalently immobilized on a sensor chip via amide coupling (Fig. 5 and Table 1). […] Thiols 17, 18, 24 and 25 reached equilibrium binding within 60 s of interaction with immobilized LecA, followed by their dissociation with moderate off-rates. […] Due to the very small off-rates for 26a, 26b and 27, these values have been calculated based on the response at […] of the injected compound and monitoring their dissociation for 30 min (Fig. S2 ^†). The observed very tight binding to immobilized LecA required optimization of the protein surface regeneration procedure. Effective conditions were identified as one injection of 50 mm isopropyl β-D-thiogalactoside in the running buffer, followed by one injection of 20 mm EDTA disodium salt in water. The regenerated chip surface was controlled using an injection of 1 to ensure that the activity of LecA was maintained.
Surface plasmon resonance direct LecA binding assay
SPR experiments were performed on a Reichert 2-channel SPR SR7500DC (Reichert Technologies Life Sciences, Buffalo, NY, USA) at 25 °C. For LecA immobilization, the surface of a HC1000M sensor chip (XanTec bioanalytics GmbH, Düsseldorf, Germany) was preequilibrated with borate buffer (1 M NaCl, 0.1 M sodium borate pH 9.0), followed by activation of the polycarboxylate hydrogel with 0.2 M N-hydroxysuccinimide (NHS) and 0.4 M 1-ethyl-3-(3-dimethylaminopropyl)carbodiimide hydrochloride (EDC‧HCl) in MilliQ water in both channels for 240 s (flow rate 10 μL/min) until the binding response reached 1200 RU.
Then, LecA (100 μg/mL) in 10 mM sodium acetate pH 3.6 was injected on the activated chip surface of one channel (injection time 420 s, flow rate 10 μL/min) and 6000 RU of LecA were immobilized. Unreacted NHS esters in both channels were blocked with 1 M ethanolamine hydrochloride in MilliQ water pH 8.5 (injection time 360 s, flow rate 10 μL/min).
Test compound stock solutions were prepared in DMSO (20 mM stocks for monovalent LecA inhibitors, 20 µM stocks for divalent LecA inhibitors) and were subsequently diluted in 10 mM phosphate buffer (pH 7.4, 2.7 mM KCl, 137 mM NaCl, 100 μM CaCl2) to obtain solutions with […]
Monovalent inhibitors 17, 18, 24 and 25 were injected for 120 s (flow rate 50 μL/min) at concentrations ranging from 0.39–100 µM. Divalent inhibitors 26a, 26b and 27 were injected for 120 s (flow rate 50 μL/min) at concentrations 50–350 nM. The chip surface was regenerated after each inhibitor injection by one injection of 50 mM IPTG in running buffer (10 mM phosphate buffer, pH 7.4, 2.7 mM KCl, 137 mM NaCl, 100 μM CaCl2, 2% DMSO) followed by one injection 20 mM EDTA disodium salt in MilliQ water, and then followed by three injections of the running buffer (injection time 120 s, flow rate 50 μL/min). 100 µM pNP-Gal (1) in running buffer was injected before each analyte to monitor and ensure chip regeneration and […]
Affinity/equilibrium analysis was performed for 1 on the same chip. A stock solution of 1 (10 mM in PBS/CaCl2 buffer) was prepared, then diluted to the required concentrations in running buffer and injected at 1.56–400 µM (injection time 60 s, flow rate 50 μL/min) without regeneration steps. Data analysis was performed using TraceDrawer software (Ridgeview Instruments) using a 1:1 binding model to fit the experimental data. Spikes at the end of the injections were removed in TraceDrawer during the data analysis.

LasB [1] = target: T2, LasB (Pseudomonas aeruginosa, UniProt Q02RJ6); assay: FRET-based in vitro LasB inhibition (proteolysis) assay; assay type: biochemical, P. aeruginosa PA14
T2 construct: P. aeruginosa PA14 culture supernatant; made in house; host or cells: native secreted enzyme purified from P. aeruginosa PA14 culture supernatant (not recombinant)
T2 sequence (Q02RJ6 198-498): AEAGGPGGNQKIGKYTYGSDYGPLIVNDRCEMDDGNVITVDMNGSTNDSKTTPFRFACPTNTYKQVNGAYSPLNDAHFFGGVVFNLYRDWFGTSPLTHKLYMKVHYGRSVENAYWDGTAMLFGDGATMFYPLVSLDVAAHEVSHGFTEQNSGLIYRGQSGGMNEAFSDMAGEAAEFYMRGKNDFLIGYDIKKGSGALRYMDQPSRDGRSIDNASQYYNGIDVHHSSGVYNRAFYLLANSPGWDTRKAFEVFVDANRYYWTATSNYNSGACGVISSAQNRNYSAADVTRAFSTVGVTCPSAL
Description: The LasB activity of the thiol derivatives 11, 12, 17, 18, 24 and 25 was tested using a functional FRET-based in vitro proteolysis assay (Fig. 4A). […]
Expression and purification of LasB and LecA
LecA was expressed recombinantly using E. coli pET25-pail, whereas LasB was isolated from P. aeruginosa PA14 culture supernatant as described previously. 1,2 […]
In vitro inhibition assay for LasB
The in vitro inhibition assay was performed as described previously,2 using purified LasB (final concentration 0.3 nM), the fluorogenic substrate 2-aminobenzoyl-Ala-Gly-Leu-Ala-4-nitrobenzylamide (purchased from Peptides International (Louisville, KY, USA) or Vivitide, LLC (Gardner, MA, USA), final concentration 150 µM)) in assay buffer (50 mM Tris, pH 7.2, 2.5 mM CaCl2, 0.075% Pluronic F-127, 5% DMSO). Fluorescence was measured using a CLARIOstar plate reader (BMG Labtech, Ortenberg, Germany). IC50 values were calculated using GraphPad Prism 8 (GraphPad Software, San Diego, CA, USA) from at least three independent experiments performed in duplicate.

LasB [2] = target: T2, LasB; conditions: previously observed activities of reported inhibitors; cited from earlier work
[3] = tested on: LecA-FITC binding to human A549 cells; assay: Inhibition of LecA-FITC adhesion to A549 cells by fluorescence microscopy; assay type: cell-based; conditions: concentrations tested 1-100 µM, 10 μM LecA-FITC, 4 °C, 30 min
Description: LecA-mediated cell adhesion is crucial for the initial infection and host-cell invasion of P. aeruginosa. Therefore, compounds 1 and 2, a combination of 1+2 and the dual inhibitor 12 were assessed for their ability to inhibit LecA-binding to human A549 cells. 10 μM of LecA-FITC and different concentrations of the respective compounds were incubated at 4 °C for 30 min with confluent A549 cells.
10 min, facilitating the separation of bacterial cells from the supernatant. The latter was filtered through a 0.22 µm sterile filter and stored at –80 °C until further use. […]
CO2. […] The plates were then incubated for an additional 30 min at 37 °C and then, the UV absorbance was measured using a PHERAstar microplate reader. The test samples were read at a wavelength of 550 nm, while the blank was read at 620 nm. At last, the data were statistically analyzed and presented graphically using GraphPad Prism 9 (Figure S4 and S5). […]
have any negative effects. The plate was then incubated at 4 °C for 30 min and wells were washed 5 times with PBS prior to imaging via fluorescence microscopy.
Fluorescence image acquisition, processing, and quantification
Fluorescence images were captured using an inverted fluorescence microscope (Leica DMi8) equipped with a 20x objective (HC PL APO CS2 20x/0.75 IMM UV), an FITC filter cube (EX: […]

A549 cells = assay: Inhibition of LasB-dependent cytotoxicity of P. aeruginosa PAO1 culture supernatant on A549 cells (MTT); assay type: cell-based, human; conditions: 1 μM compound, 10% (v/v) PAO1 supernatant
Description: Next, we set out to analyze the ability of the dual inhibitor 12 and the individual treatment or combination of galactoside 1 and thiol 2 to reduce LasB-dependent cytotoxicity from P. aeruginosa PAO1 culture supernatant on A549 cells. None of the investigated compounds influenced A549 cell viability at 100 μM in the absence of bacterial culture supernatant (Fig. S4 ^†). […]
In vitro evaluation of 12 and a combination of 1 and 2 using P. aeruginosa culture supernatant and A549 cells in a cell viability assay
The A549 cell line, derived from human lung adenocarcinoma, was grown in Dulbecco's Modified Eagle Medium (DMEM) supplemented with 10% Fetal Bovine Serum (FBS) and 1% penicillin-streptomycin. The cells were cultured following standard protocols for cell […]
To prepare the bacterial culture supernatant, individual flasks containing 15 mL of lysogeny broth (LB) culture medium were inoculated with PAO1 or PAO1 ΔlasB strains. Culture flasks were placed on a shaker and incubated at 37 °C and 180 rpm overnight for 18 hours. Following incubation, the bacterial cultures were subjected to centrifugation at 4 °C and 5000 rpm for […]
10 min, facilitating the separation of bacterial cells from the supernatant. The latter was filtered through a 0.22 µm sterile filter and stored at –80 °C until further use.
In a flat bottom 96-well plate (Corning™ Costar™), each well was seeded with 2.5–3.5*10 3 cells in 100 µL DMEM/FCS and then incubated at a temperature of 37 °C with 5% CO2 for 24 hours. Then, compounds 12 and 1 combined with 2 in concentrations of 100 µM, 10 µM, and 1 µM were mixed with 10% (v/v) of culture supernatant of P. aeruginosa PAO1 (DSM 22644, ATCC 15692) in DMEM/FCS. To minimize the potential negative effect of DMSO, the compound was initially dissolved in 99.9% DMSO, and a final assay concentration of 0.5% DMSO was applied. Additionally, the cells were exposed to 10% (v/v) PAO1 ΔlasB culture supernatant to analyze the effect caused by LasB, while DMEM/FCS without any treatment served as a control. The plates were then incubated at 37 °C with 5% CO2 for 24 hours before conducting the MTT assay.
To assess cell viability, the medium in the well plates was aspirated and a single wash was performed using 100 µL of phosphate buffered saline, pH 7.4 (PBS). A solution of 5 mg MTT (3-(4,5-dimethylthiazol-2-yl)-2,5-diphenyl tetrazolium bromide) per mL PBS was prepared and diluted to a concentration of 10% (v/v) in DMEM/FCS. Subsequently, 100 µL of this MTT solution was added to each well, and the plates were incubated at 37 °C for 3 hours with 5%
CO2. After incubation, the MTT solution was carefully removed, and the formazan crystals were dissolved by adding 150 µL of lysis solution (250 mL DMSO, 25 g SDS, and 1.25 mL AcOH) to each well. The plates were then incubated for an additional 30 min at 37 °C and then, the UV absorbance was measured using a PHERAstar microplate reader. The test samples were read at a wavelength of 550 nm, while the blank was read at 620 nm. At last, the data were statistically analyzed and presented graphically using GraphPad Prism 9 (Figure S4 and S5).
Evaluation of compounds 1, 2 and 12 in inhibiting LecA adhesion to A549 cells via […]
The A549 cell line were cultured following the protocols for cell maintenance described above.
In a flat-bottom cell culture black 96-well plate (Greiner Bio-One, #Cat 655090) each well was seeded with 1*104 cells in 100 µL DMEM/FCS and subsequently, incubated overnight at 37 °C with 5% CO2. […]

T1 sequence (Q05097 whole entry): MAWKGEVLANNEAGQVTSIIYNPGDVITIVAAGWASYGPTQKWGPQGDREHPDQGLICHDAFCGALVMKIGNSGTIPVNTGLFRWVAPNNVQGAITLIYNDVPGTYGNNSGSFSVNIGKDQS

Compound | Kd (LecA) [nM] | time to reach equilibrium binding with immobilized LecA (LecA) [s] | k a (LecA) | k d (LecA) | IC50 (LasB [1]) [nM] | IC50 (LasB [2]) [nM] | inhibition of binding of LecA-FITC to A549 cells [3] | A549 cell viability under PAO1 culture supernatant (A549 cells)
CC(C)C[C@H](S)C(=O)Nc1ccc(S[C@@H]2O[C@H](CO)[C@H](O)[C@H](O)[C@H]2O)cc1 [Compound 25] | 1000 ± 590 | ≤ 60 | 0.90 ± 0.31 ×10^4 M^−1 s^−1 | 85 ± 2 ×10^−4 s^−1 | 770 | – | – | –
O=C(Nc1ccccc1)C(S)Cc1ccccc1 (centres unmarked) [Compound 3] | – | – | – | – | – | 1200 | – | –
CC(C)C[C@@H](S)C(=O)Nc1ccc(S[C@@H]2O[C@H](CO)[C@H](O)[C@H](O)[C@H]2O)cc1 [Compound 18] | 630 ± 290 | ≤ 60 | 1.41 ± 0.47 ×10^4 M^−1 s^−1 | 82 ± 11 ×10^−4 s^−1 | 510 | – | – | –
O=C(Nc1ccc(S[C@@H]2O[C@H](CO)[C@H](O)[C@H](O)[C@H]2O)cc1)[C@@H](S)Cc1ccccc1 [Compound 24] | 840 ± 160 | ≤ 60 | 0.88 ± 0.23 ×10^4 M^−1 s^−1 | 72 ± 5 ×10^−4 s^−1 | 220 | – | – | –
Cc1ccc(NC(=O)C(S)CC(C)C)cc1 (centres unmarked) [Compound 2, reference compound] | – | – | – | – | – | – | failed to do so | neither 1 nor 2 nor their combination had any effect
O=C(Nc1ccc(S[C@@H]2O[C@H](CO)[C@H](O)[C@H](O)[C@H]2O)cc1)[C@H](S)Cc1ccccc1 [Compound 17] | 1300 ± 540 | ≤ 60 | 0.71 ± 0.14 ×10^4 M^−1 s^−1 | 86 ± 20 ×10^−4 s^−1 | 730 | – | – | –
